This note sets out measurements from patent US8461107B2 (Merck Sharp & Dohme Corp., priority 2008, dated 2013).

Where only a bound is given, the exact number is not on record here.

This assay has as its target T1, HCV genotype 1b (BK) NS3 modified with a R155K mutation (Hepatitis C virus genotype 1b, UniProt P26663, R1181K).
T1 construct: HCV genotype 1b (BK) NS3 modified with a R155K mutation
The assay can be described thus: HCV NS3 protease time-resolved fluorescence (TRF) assay, NS3 protease 1b R155K Ki activity. Type of assay: biochemical. The note with it: HCV genotype 1b (BK) NS3 with R155K mutation; TRF peptide substrate 100 nM; Ki derived from IC50. The method, then: The HCV NS3 protease inhibitory activity of the present compounds may be tested using assays known in the art. One such assay is HCV NS3 protease time-resolved fluorescence (TRF) assay as described below and in International Patent Application Publication WO 2006/102087. Other examples of such assays are described in e.g., International Patent Application Publication WO 2005/046712.
A NS3 protease assay can be performed, for example, in a final volume of 100 μl assay buffer containing 50 mM HEPES, pH 7.5, 150 mM NaCl, 15% glycerol, 0.15% TRITON X-100, 10 mM DTT, and 0.1% PEG 8000. NS3 and NS4A protease is pre-incubated with various concentrations of inhibitors in DMSO for 30 minutes. The reaction is initiated by adding the TRF peptide substrate (final concentration 100 nM). NS3 mediated hydrolysis of the substrate is quenched after 1 hour at room temperature with 100 μl of 500 mM MES, pH 5.5. Product fluorescence is detected using either a VICTOR V2 or FUSION fluorophotometer (Perkin Elmer Life and Analytical Sciences) with excitation at 340 nm and emission at 615 nm with a 400 μs delay. Testing concentrations of different enzyme forms are selected to result in a signal to background ratio (S/B) of 10-30. IC50 values are derived using a standard four-parameter fit to the data. Ki values are derived from IC50 values using the following formula, IC50=Ki(1+[S]/KM), Eqn (1), where [S] is the concentration of substrate peptide in the reaction and KM is the Michaelis constant. See P. Gallinari et al., 38 BIOCHEM. 5620-32 (1999); P. Gallinari et al., 72 J. VIROL. 6758-69 (1998); M. Taliani et al., 240 ANAL. BIOCHEM. 60-67 (1996).
The HCV NS3 protease inhibitory activity was measured using the protease time-resolved fluorescence (TRF) assay as described below and in International Patent Application Publication WO 2006/102087. The assay was performed with HCV genotype 1b (BK) NS3 modified with a R155K mutation.
The assay was performed in a final volume of 100 μl in assay buffer containing 50 mM HEPES, pH 7.5, 150 mM NaCl, 15% glycerol, 0.15% TRITON X-100, 10 mM DTT, and 0.1% PEG 8000. NS3 and NS4A protease is pre-incubated with various concentrations of inhibitors in DMSO for 30 minutes. The reaction is initiated by adding the TRF peptide substrate (final concentration 100 nM). NS3 mediated hydrolysis of the substrate is quenched after 1 hour at room temperature with 100 μl of 500 mM MES, pH 5.5. Product fluorescence is detected using either a VICTOR V2 or FUSION fluorophotometer (Perkin Elmer Life and Analytical Sciences) with excitation at 340 nm and emission at 615 nm with a 400 μs delay. Testing concentrations of the enzyme containing the R155K mutation were selected to result in a signal to background ratio (S/B) of 10-30. IC50 values are derived using a standard four-parameter fit to the data. Ki values are derived from IC50 values using the following formula, IC50=Ki(1+[S]/KM), Eqn (1), where [S] is the concentration of substrate peptide in the reaction and KM is the Michaelis constant. See P. Gallinari et al., 38 BIOCHEM. 5620-32 (1999); P. Gallinari et al., 72 J. VIROL. 6758-69 (1998); M. Taliani et al., 240 ANAL. BIOCHEM. 60-67 (1996).
By Ki is commonly meant a dissociation constant, usually derived from enzyme kinetics or from competition with a known ligand. Higher therefore signals a looser hold on the target. The compound `CC[C@@H]1C[C@]1(NC(=O)[C@@H]1C[C@@H]2CN1C(=O)[C@H](C1CCCC1)NC(=O)O[C@@H]1CCC[C@H]1CC/C=C/Cn1c(nc3cc(C(F)(F)F)ccc3c1=O)O2)C(=O)NS(=O)(=O)C1CC1` [(3aR,7S,10S,12R,22E,25aS)-7-cyclopentyl-N-((1R,2R)-1-{[(cyclopropylsulfonyl)amino]carbonyl}-2-ethylcyclopropyl)-5,8,19-trioxo-16-(trifluoromethyl)-1,2,3,3a,5,6,7,8,11,12,21,24,25,25a-tetradecahydro-10H,19H-9,12-methanocyclopenta[18,19][1,10,3,6,12]dioxatriazacyclononadecino[11,12-b]quinazoline-10-carboxamide] gave a Ki of under 0.1 nM.
In turn, `CC[C@@H]1C[C@]1(NC(=O)[C@@H]1C[C@@H]2CN1C(=O)[C@H](C1CCCC1)NC(=O)O[C@@H]1CCC[C@H]1CC/C=C/Cn1c(nc3cc(-c4ccccc4)ccc3c1=O)O2)C(=O)NS(=O)(=O)C1CC1` [(3aR,7S,10S,12R,22E,25aS)-7-cyclopentyl-N-((1R,2R)-1-{[(cyclopropylsulfonyl)amino]carbonyl}-2-ethylcyclopropyl)-5,8,19-trioxo-16-phenyl-1,2,3,3a,5,6,7,8,11,12,21,24,25,25a-tetradecahydro-10H,19H-9,12-methanocyclopenta[18,19][1,10,3,6,12]dioxatriazacyclononadecino[11,12-b]quinazoline-10-carboxamide] gave an inhibition constant Ki of 0.1 to 0.5 nM.
`CC[C@@H]1C[C@]1(NC(=O)[C@@H]1C[C@@H]2CN1C(=O)[C@H](C1CCCC1)NC(=O)O[C@@H]1CCC[C@H]1CC/C=C/Cc1c(nc3ccccn3c1=O)O2)C(=O)NS(=O)(=O)C1CC1` [(3aR,7S,10S,12R,22E,25aS)-7-cyclopentyl-N-((1R,2R)-1-{[(cyclopropylsulfonyl)amino]carbonyl}-2-ethylcyclopropyl)-5,8,20-trioxo-1,2,3,3a,5,6,7,8,11,12,21,24,25,25a-tetradecahydro-10H,20H-9,12-methanocyclopenta[r]pyrido[1′,2′:1,2]pyrimido[4,5-k][1,10,3,6]dioxadiazacyclononadecine-10-carboxamide] displayed a Ki of 0.1 to 0.5 nM.
As to `CC[C@@H]1C[C@]1(NC(=O)[C@@H]1C[C@@H]2CN1C(=O)[C@H](C1CCCC1)NC(=O)O[C@@H]1CCC[C@H]1CC/C=C/Cn1c(nc3c(OC)cccc3c1=O)O2)C(=O)NS(=O)(=O)C1CC1` [(3aR,7S,10S,12R,22E,25aS)-7-cyclopentyl-N-((1R,2R)-1-{[(cyclopropylsulfonyl)amino]carbonyl}-2-ethylcyclopropyl)-15-methoxy-5,8,19-trioxo-1,2,3,3a,5,6,7,8,11,12,21,24,25,25a-tetradecahydro-10H,19H-9,12-methanocyclopenta[18,19][1,10,3,6,12]dioxatriazacyclononadecino[11,12-b]quinazoline-10-carboxamide], the Ki lay within 0.1 to 0.5 nM.
Take `CC[C@@H]1C[C@]1(NC(=O)[C@@H]1C[C@@H]2CN1C(=O)[C@H](C1CCCC1)NC(=O)O[C@@H]1CCC[C@H]1CC/C=C/Cn1c(nc3cc(S(C)(=O)=O)ccc3c1=O)O2)C(=O)NS(=O)(=O)C1CC1` [(3aR,7S,10S,12R,22E,25aS)-7-cyclopentyl-N-((1R,2R)-1-{[(cyclopropylsulfonyl)amino]carbonyl}-2-ethylcyclopropyl)-16-(methylsulfonyl)-5,8,19-trioxo-1,2,3,3a,5,6,7,8,11,12,21,24,25,25a-tetradecahydro-10H,19H-9,12-methanocyclopenta[18,19][1,10,3,6,12]dioxatriazacyclononadecino[11,12-b]quinazoline-10-carboxamide]: the Ki is under 0.1 nM.
`CC[C@@H]1C[C@]1(NC(=O)[C@@H]1C[C@@H]2CN1C(=O)[C@H](C1CCCC1)NC(=O)O[C@@H]1CCC[C@H]1CC/C=C/Cc1c(nc3cc(OC)ccn3c1=O)O2)C(=O)NS(=O)(=O)C1CC1` [(3aR,7S,10S,12R,22E,25aS)-7-cyclopentyl-N-((1R,2R)-1-{[(cyclopropylsulfonyl)amino]carbonyl}-2-ethylcyclopropyl)-16-methoxy-5,8,20-trioxo-1,2,3,3a,5,6,7,8,11,12,21,24,25,25a-tetradecahydro-10H,20H-9,12-methanocyclopenta[r]pyrido[1′,2′:1,2]pyrimido[4,5-k][1,10,3,6]dioxadiazacyclononadecine-10-carboxamide] returned a Ki of 0.1 to 0.5 nM.
For `CC[C@@H]1C[C@]1(NC(=O)[C@@H]1C[C@@H]2CN1C(=O)[C@H](C1CCCC1)NC(=O)O[C@@H]1CCC[C@H]1CC/C=C/Cn1c(nc3cccc(OC)c3c1=O)O2)C(=O)NS(=O)(=O)C1CC1` [(3aR,7S,10S,12R,22E,25aS)-7-cyclopentyl-N-((1R,2R)-1-{[(cyclopropylsulfonyl)amino]carbonyl}-2-ethylcyclopropyl)-18-methoxy-5,8,19-trioxo-1,2,3,3a,5,6,7,8,11,12,21,24,25,25a-tetradecahydro-10H,19H-9,12-methanocyclopenta[18,19][1,10,3,6,12]dioxatriazacyclononadecino[11,12-b]quinazoline-10-carboxamide], the Ki lay within 0.1 to 0.5 nM.
As for `C=C[C@@H]1C[C@]1(NC(=O)[C@@H]1C[C@@H]2CN1C(=O)[C@H](C1CCCC1)NC(=O)O[C@@H]1CCC[C@H]1CC/C=C/Cn1c(nc3ccccc3c1=O)O2)C(=O)NS(=O)(=O)C1CC1` [(3aR,7S,10S,12R,22E,25aS)-7-cyclopentyl-N-((1R,2S)-1-{[(cyclopropylsulfonyl)amino]carbonyl}-2-vinylcyclopropyl)-5,8,19-trioxo-1,2,3,3a,5,6,7,8,11,12,21,24,25,25a-tetradecahydro-10H,19H-9,12-methanocyclopenta[18,19][1,10,3,6,12]dioxatriazacyclononadecino[11,12-b]quinazoline-10-carboxamide], the figure is under 0.1 nM; as for `C=C[C@@H]1C[C@]1(NC(=O)[C@@H]1C[C@@H]2CN1C(=O)[C@H](C1CCCC1)NC(=O)O[C@@H]1CCC[C@H]1CC/C=C/Cn1c(nc3cc(C(F)(F)F)ccc3c1=O)O2)C(=O)NS(=O)(=O)C1CC1` [(3aR,7S,10S,12R,22E,25aS)-7-cyclopentyl-N-((1R,2S)-1-{[(cyclopropylsulfonyl)amino]carbonyl}-2-vinylcyclopropyl)-5,8,19-trioxo-16-(trifluoromethyl)-1,2,3,3a,5,6,7,8,11,12,21,24,25,25a-tetradecahydro-10H,19H-9,12-methanocyclopenta[18,19][1,10,3,6,12]dioxatriazacyclononadecino[11,12-b]quinazoline-10-carboxamide], under 0.1 nM; as for `C=C[C@@H]1C[C@]1(NC(=O)[C@@H]1C[C@@H]2CN1C(=O)[C@H](C1CCCC1)NC(=O)O[C@@H]1CCC[C@H]1CC/C=C/Cn1c(nc3cc(-c4ccccc4)ccc3c1=O)O2)C(=O)NS(=O)(=O)C1CC1` [(3aR,7S,10S,12R,22E,25aS)-7-cyclopentyl-N-((1R,2S)-1-{[(cyclopropylsulfonyl)amino]carbonyl}-2-vinylcyclopropyl)-5,8,19-trioxo-16-phenyl-1,2,3,3a,5,6,7,8,11,12,21,24,25,25a-tetradecahydro-10H,19H-9,12-methanocyclopenta[18,19][1,10,3,6,12]dioxatriazacyclononadecino[11,12-b]quinazoline-10-carboxamide], under 0.1 nM.
